Assay results: US20090156575A1, “NOVEL DIAZASPIROALKANES AND THEIR USE FOR TREATMENT OF CCR8 MEDIATED DISEASES” (priority 2005, published 2009)
Structures can show the parent of a compound that is named as a salt.

What follows are molecules tested against T1, human recombinant chemokine CCR8 receptor (Homo sapiens, UniProt P51685) (assay: CCL1 SPA binding assay). Settings: IC50 (nM), membranes from CHO-K1 cells transfected with human CCR8; 125I CCL1 displacement, SPA beads.
T1 construct: purchased Euroscreen ES-136-M; host or cells: CHO-K1 cells (transfected), membrane preparation
T1 sequence (P51685 whole entry): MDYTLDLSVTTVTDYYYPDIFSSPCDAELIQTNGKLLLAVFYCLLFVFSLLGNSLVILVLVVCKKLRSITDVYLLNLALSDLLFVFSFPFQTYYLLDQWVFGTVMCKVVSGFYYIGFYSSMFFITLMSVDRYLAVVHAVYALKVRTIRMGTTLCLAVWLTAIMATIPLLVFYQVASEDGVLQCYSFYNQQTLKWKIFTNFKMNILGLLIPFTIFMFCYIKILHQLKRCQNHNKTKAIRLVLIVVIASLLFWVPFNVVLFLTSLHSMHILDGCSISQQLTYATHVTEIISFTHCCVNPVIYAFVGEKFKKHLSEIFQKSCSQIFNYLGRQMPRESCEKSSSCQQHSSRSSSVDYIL
Protocol: Membranes from CHO-K1 cells transfected with human recombinant chemokine CCR8 receptor (ES-136-M) were purchased from Euroscreen. Membrane preparations are stored at −70 C in 7.5 mM Tris-Cl pH 7.5, 12.5 mM MgCl2, 0.3 mM EDTA, 1 mM EGTA, 250 mM sucrose until used.
The CCR8 membranes (50.6 mg/ml) were preincubated with Wheat Germ Agglutinin SPA beads (4.05 mg/ml) in assay buffer (50 mM HEPES, 1 mM CaCl2×2H2O, 5 mM MgCl2×6H2O, 75 mM NaCl, 0.1% BSA) at pH=7.4 for 2 hours on ice. A […] dose-response curve (final concentrations 50 μM, 16.7 μM, 5.6 μM, 1.9 μM, 0.62 μM, 0.21 μM, 0.069 μM, 0.023 μM) was prepared by diluting compounds by serial dilution 1:3 in DMSO. In the screening plate (Polystyrene NBS plates, Costar Corning 3604) 1 μl from the DMSO solutions of compounds was transferred into each well. 1 μl of DMSO was added to the blank control wells and 1 μl unlabeled CCL1 (300 nM) was added to background control wells. 50 μl of the SPA bead-membrane mixture was added into each well. Finally, 50 μl ([…]) ^125I CCL1 (2000 Ci/mM) was added to each well. Plates were then incubated at RT with shaking (700 rpm) for 90 minutes followed by 30 minutes at RT without shaking. The plate was read in a Wallac MicroBeta counter for 2 minutes/well.

SMILES | IC50 [nM]
CC1(C)Cc2c(CN3CCC4(CC3)CCN(C(=O)c3ccc(N)cn3)CC4)cccc2O1 [Example 86, 6-({9-[(2,2-dimethyl-2,3-dihydro-1-benzofuran-4-yl)methyl]-3,9-diazaspiro[5.5]undec-3-yl}carbonyl)pyridin-3-amine Trifluoroacetate] | 8

Same assay, conditions: membranes from CHO-K1 cells transfected with human CCR8; 125I CCL1 displacement, SPA beads; read-out: IC50

IC50 [nM] | SMILES
87 | CC1(C)Cc2c(CN3CCC4(CC3)CCN(C(=O)c3ccncc3CC(N)=O)CC4)cccc2O1 [Example 159, 2-[4-({9-[(2,2-dimethyl-2,3-dihydro-1-benzofuran-4-yl)methyl]-3,9-diazaspiro[5.5]undec-3-yl}carbonyl)pyridin-3-yl]acetamide]
12 | CC1(C)Cc2cccc(CN3CCC4(CC3)CCN(C(=O)c3ccncc3)CC4)c2O1 [Example 1, 3-[(2,2-dimethyl-2,3-dihydro-1-benzofuran-7-yl)methyl]-9-isonicotinoyl-3,9-diazaspiro[5.5]undecane Trifluoroacetate]
57 | CC1(C)Cc2cccc(CN3CCC4(CC3)CCN(C(=O)c3ccccc3CC(=O)N3CCC[C@@H]3C(N)=O)CC4)c2O1 [Example 18, 1-{[2-({9-[(2,2-dimethyl-2,3-dihydro-1-benzofuran-7-yl)methyl]-3,9-diazaspiro[5.5]undec-3-yl}carbonyl)phenyl]acetyl}-D-prolinamide]
104 | CC1(C)Cc2cccc(CN3CCC4(CC3)CCN(C(=O)CCc3nc(-c5ccccn5)no3)CC4)c2O1 [Example 111, 3-[(2,2-dimethyl-2,3-dihydro-1-benzofuran-7-yl)methyl]-9-[3-(3-pyridin-2-yl-1,2,4-oxadiazol-5-yl)propanoyl]-3,9-diazaspiro[5.5]undecane]
12 | CC1(C)Cc2c(CN3CCC4(CC3)CCN(C(=O)c3ccnc(N)n3)CC4)cccc2O1 [Example 124, 4-({9-[(2,2-dimethyl-2,3-dihydro-1-benzofuran-4-yl)methyl]-3,9-diazaspiro[5.5]undec-3-yl}carbonyl)pyrimidin-2-amine]
32 | CC1(C)COc2cccc(CN3CCC4(CC3)CCN(C(=O)c3ccncc3CC(N)=O)CC4)c2O1 [Example 143, 2-[4-({9-[(3,3-dimethyl-2,3-dihydro-1,4-benzodioxin-5-yl)methyl]-3,9-diazaspiro[5.5]undec-3-yl}carbonyl)pyridin-3-yl]acetamide Ditrifluoroacetate]
84 | CC1(C)Oc2cccc(CN3CCC4(CC3)CCN(C(=O)c3ccc(N)[nH]c3=O)CC4)c2O1 [Example 133, 6-amino-3-({9-[(2,2-dimethyl-1,3-benzodioxol-4-yl)methyl]-3,9-diazaspiro[5.5]undec-3-yl}carbonyl)pyridin-2(1H)-one]
8 | CC1(C)Cc2cccc(CN3CCC4(CC3)CCN(C(=O)c3ccc5cc[nH]c5c3)CC4)c2O1 [Example 68, 3-[(2,2-dimethyl-2,3-dihydro-1-benzofuran-7-yl)methyl]-9-(1H-indol-6-ylcarbonyl)-3,9-diazaspiro[5.5]undecane Acetate]
50 | CC1(C)Cc2c(CN3CCC4(CC3)CN(C(=O)c3ccnc(N)n3)C4)cccc2O1 [Example 157, 4-({7-[(2,2-dimethyl-2,3-dihydro-1-benzofuran-4-yl)methyl]-2,7-diazaspiro[3.5]non-2-yl}carbonyl)pyrimidin-2-amine]
38 | CC1(C)Cc2cccc(CN3CCC4(CC3)CCN(C(=O)c3ccccc3NC(=O)C3CCCO3)CC4)c2O1 (stereo not shown) [Example 49, N-[2-({9-[(2,2-dimethyl-2,3-dihydro-1-benzofuran-7-yl)methyl]-3,9-diazaspiro[5.5]undec-3-yl}carbonyl)phenyl]tetrahydrofuran-2-carboxamide]
23 | CC1(C)Oc2cccc(CN3CCC4(CC3)CCN(C(=O)c3ncccc3N)CC4)c2O1 [Example 92, 2-({9-[(2,2-dimethyl-1,3-benzodioxol-4-yl)methyl]-3,9-diazaspiro[5.5]undec-3-yl}carbonyl)pyridin-3-amine]
10 | CC1(C)Cc2cccc(CN3CCC4(CC3)CCN(C(=O)c3ccno3)CC4)c2O1 [Example 31, 3-[(2,2-dimethyl-2,3-dihydro-1-benzofuran-7-yl)methyl]-9-(isoxazol-5-ylcarbonyl)-3,9-diazaspiro[5.5]undecane Trifluoroacetate]
72 | COC(=O)Cc1ccccc1C(=O)N1CCC2(CCN(Cc3cccc4c3OC(C)(C)C4)CC2)CC1 [Example 181, Methyl [2-({9-[(2,2-dimethyl-2,3-dihydro-1-benzofuran-7-yl)methyl]-3,9-diazaspiro[5.5]undec-3-yl}carbonyl)phenyl]acetate]
21 | CC1(C)COc2c(CN3CCC4(CC3)CCN(C(=O)c3ccc(N)cn3)CC4)cccc2O1 [Example 173, 6-({9-[(2,2-dimethyl-2,3-dihydro-1,4-benzodioxin-5-yl)methyl]-3,9-diazaspiro[5.5]undec-3-yl}carbonyl)pyridin-3-amine Trifluoroacetate]
70 | CC1(C)C=Cc2cccc(CN3CCC4(CC3)CN(C(=O)c3ccncc3)C4)c2O1 [Example 139, 7-[(2,2-dimethyl-2H-chromen-8-yl)methyl]-2-isonicotinoyl-2,7-diazaspiro[3.5]nonane]
53 | CC1(C)COc2c(CN3CCC4(CC3)CCN(C(=O)c3ccncc3)CC4)cccc2O1 [Example 110, 3-[(2,2-dimethyl-2,3-dihydro-1,4-benzodioxin-5-yl)methyl]-9-isonicotinoyl-3,9-diazaspiro[5.5]undecane Trifluoroacetate]
143 | CC1(C)Cc2cccc(CN3CCC4(CC3)CCN(C(=O)c3cccc5c3NC(=O)C5=O)CC4)c2O1 [Example 63, 7-({9-[(2,2-dimethyl-2,3-dihydro-1-benzofuran-7-yl)methyl]-3,9-diazaspiro[5.5]undec-3-yl}carbonyl)-1H-indole-2,3-dione Trifluoroacetate]
9 | COC(=O)Cc1ccccc1C(=O)N1CCC2(CCN(Cc3cccc4c3OC(C)(C)C4)CC2)CC1 [Example 5, Methyl [2-({9-[(2,2-dimethyl-2,3-dihydro-1-benzofuran-7-yl)methyl]-3,9-diazaspiro[5.5]undec-3-yl}carbonyl)phenyl]acetate]
